Reference: patent US7557110B2, “Pyrazolo[1,5-A] pyrimidine derivatives” (Teijin Pharma Limited, priority 2003, dated 2009)
Like-named read-outs stand apart in the source and are kept apart here.

Columns and labels:
[1] = molecular target: MAPKAP-K2 (Homo sapiens, UniProt P49137); assay: MAPKAP-K2 enzyme activity inhibition (33P-ATP filter plate kinase assay); format: biochemical; settings: MAPKAP-K2 inhibitory activity; assays conducted at typically 1-100 μM; also: key: +: active; ++: more active; +++: very active
[2] = molecular target: CDK-2 (Homo sapiens, UniProt P24941); assay: CDK-2 enzyme activity inhibition (33P-ATP filter plate kinase assay); format: biochemical
Description: [General Procedure for Measurement of CDK-2 Enzyme Activity Inhibition]

[3] = molecular target: CDK-1 (Homo sapiens, UniProt P06493); assay: CDK-1 enzyme activity inhibition (33P-ATP filter plate kinase assay)
Description: [General Procedure for Measurement of CDK-1 Enzyme Activity Inhibition]
Compounds were dissolved in DMSO at a concentration of 10 mM and stored in aliquots at −20° C. Compounds in DMSO from these stock aliquots were diluted in DMSO to produce the required range of 30× stock solutions. These stock solutions were then subjected to 1:3 dilutions in order to prepare the required range of 10× stock solutions and 5 μL of each solution was used per 50 μL reaction.
The kinase reaction was conducted in a round-bottomed polypropylene 96-well plate. CDK-1 was diluted to 0.5 U/μL in diluent buffer (50 mM Tris/HCl. pH7.5, 0.1 mM EGTA, 0.1% (v/v) β-mercaptoethanol, 1 mg/mL BSA). 5 μL compound or 30% DMSO was added to each well followed by 25 μL substrate cocktail (final concentration: 10 μM ATP, 50 μM peptide ([sequence]), 0.5 μCi ^33P-γ-ATP in 50 mM Tris-HCl (pH 7.5), 1 mM EGTA, 2 mM DTT, 10 mM MgCl2, 0.01% Brij-35). The reaction was initiated with the addition of 20 μL enzyme solution per well or 20 μL of diluent buffer without enzyme. The plate was shaken for 10 seconds and then left at room temperature for 15 minutes. The reaction was terminated with 50 μL 150 mM phosphoric acid. 90 μL of the reaction mixture was then transferred into a 96-well P81 filter plate (Whatmann) and incubated at room temperature for 5 minutes. The filter plate was then washed 4 times with 200 μL 75 mM phosphoric acid per well on a plate vacuum manifold (Millipore) and dried in an oven for 2-3 hours. Packard MicroScint ‘0’ (30 μL) was then added to each well, the plate was miffed for 30 minutes and subjected to liquid scintillation counting on a Packard TopCount.

[4] = read-out: CDK-2 inhibition IC50

MAPKAP-K2, sequence (P49137 whole entry): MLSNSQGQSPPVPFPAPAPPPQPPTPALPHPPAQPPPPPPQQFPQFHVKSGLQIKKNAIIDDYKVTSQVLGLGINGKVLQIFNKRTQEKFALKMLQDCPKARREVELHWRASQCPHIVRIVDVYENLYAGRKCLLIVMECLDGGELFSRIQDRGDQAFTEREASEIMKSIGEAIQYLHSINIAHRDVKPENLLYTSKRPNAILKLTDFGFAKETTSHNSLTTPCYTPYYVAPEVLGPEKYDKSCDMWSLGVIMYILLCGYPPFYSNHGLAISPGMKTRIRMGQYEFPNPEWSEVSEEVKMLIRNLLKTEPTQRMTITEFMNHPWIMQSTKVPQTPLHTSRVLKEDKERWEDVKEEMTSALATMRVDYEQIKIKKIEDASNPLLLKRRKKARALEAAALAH
CDK-1, sequence (P06493 whole entry, species assumed): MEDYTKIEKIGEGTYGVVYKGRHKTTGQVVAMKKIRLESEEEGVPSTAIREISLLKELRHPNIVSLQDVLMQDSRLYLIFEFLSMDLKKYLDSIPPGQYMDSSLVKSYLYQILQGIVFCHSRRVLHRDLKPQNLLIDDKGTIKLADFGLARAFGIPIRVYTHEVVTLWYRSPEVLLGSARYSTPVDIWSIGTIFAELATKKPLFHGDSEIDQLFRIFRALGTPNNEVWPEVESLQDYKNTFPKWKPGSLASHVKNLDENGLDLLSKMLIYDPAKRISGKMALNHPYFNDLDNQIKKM
CDK-1, sequence (P14635 whole entry partner, species assumed): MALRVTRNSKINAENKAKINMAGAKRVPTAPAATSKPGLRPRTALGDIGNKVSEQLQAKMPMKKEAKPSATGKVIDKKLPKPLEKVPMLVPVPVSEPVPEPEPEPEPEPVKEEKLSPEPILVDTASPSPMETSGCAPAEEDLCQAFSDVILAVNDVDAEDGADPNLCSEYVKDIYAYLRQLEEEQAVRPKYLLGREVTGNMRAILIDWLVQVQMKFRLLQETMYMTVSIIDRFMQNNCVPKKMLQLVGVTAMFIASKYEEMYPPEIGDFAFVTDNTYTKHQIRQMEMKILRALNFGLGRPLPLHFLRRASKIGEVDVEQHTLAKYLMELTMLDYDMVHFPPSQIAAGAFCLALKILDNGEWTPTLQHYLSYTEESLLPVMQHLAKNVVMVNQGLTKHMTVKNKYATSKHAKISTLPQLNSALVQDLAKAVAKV

SMILES | activity (efficacy against MAPKAP-K2) [1] | IC50 [2] | IC50 [3] | melting point | IC50 [2, 4]
N[C@H]1CC[C@H](Nc2cc(Nc3ccc(F)c(Cl)c3)n3ncc(Br)c3n2)CC1 [Compound 2] | ++ | < 100 µM | < 100 µM | – | –
CCOC(=O)c1cnn2c(Nc3ccc(F)c(Cl)c3)cc(N[C@H]3CC[C@H](N)CC3)nc12 [Compound 9] | – | – | < 100 µM | 221 to 223 °C | –
Cc1c(N[C@H]2CC[C@H](N)CC2)nc2ccnn2c1Nc1ccc(F)c(Cl)c1 [Compound 10] | +++ | < 100 µM | < 100 µM | – | –
CCCc1c(N[C@H]2CC[C@H](N)CC2)nc2ccnn2c1Nc1ccc(F)c(Cl)c1 [Compound 11] | +++ | < 100 µM | < 100 µM | – | –
NC1CCC(Nc2nc3ccnn3c(Nc3ccc(F)c(Cl)c3)c2-c2ccccc2)CC1 (stereo not shown) [Compound 12] | +++ | < 100 µM | < 100 µM | – | –
Cc1c(N[C@H]2CC[C@H](N)CC2)nc2ccnn2c1Nc1ccccc1Cl [Compound 15] | +++ | < 100 µM | < 100 µM | – | –
CCc1c(N[C@H]2CC[C@H](N)CC2)nc2ccnn2c1Nc1ccccc1Cl [Compound 16] | +++ | < 100 µM | < 100 µM | – | –
C=CCc1c(N[C@H]2CC[C@H](N)CC2)nc2ccnn2c1Nc1ccccc1Cl [Compound 17] | +++ | – | < 100 µM | 153 to 155 °C | –
C=CCc1c(N[C@H]2CC[C@H](N)CC2)nc2ccnn2c1Nc1ccc(F)c(Cl)c1 [Compound 19] | +++ | – | < 100 µM | 176 to 178 °C | –
CCc1c(N[C@H]2CC[C@H](N)CC2)nc2ccnn2c1Nc1ccc(F)c(Cl)c1 [Compound 23] | +++ | < 100 µM | < 100 µM | – | –
N[C@H]1CC[C@H](Nc2nc3ccnn3c(Nc3ccc(F)c(Cl)c3)c2Cc2ccccc2)CC1 [Compound 24] | +++ | – | < 100 µM | – | –
CCc1c(N[C@H]2CC[C@H](N)CC2)nc2ccnn2c1Nc1ccc(Cl)cc1 [Compound 26] | +++ | – | < 100 µM | – | –
CCc1c(N[C@H]2CC[C@H](N)CC2)nc2ccnn2c1Nc1ccc(OC)cc1 [Compound 28] | +++ | – | < 100 µM | – | < 100 µM
CCc1c(N[C@H]2CC[C@H](N)CC2)nc2ccnn2c1Nc1ccccc1C [Compound 29] | +++ | – | < 100 µM | 176 to 178 °C | –
CCc1c(N[C@H]2CC[C@H](N)CC2)nc2ccnn2c1Nc1ccc(C)c(C)c1 [Compound 30] | +++ | – | < 100 µM | – | –
CCOc1ccc(Nc2c(CC)c(N[C@H]3CC[C@H](N)CC3)nc3ccnn23)cc1 [Compound 31] | +++ | – | < 100 µM | 131 to 133 °C | < 100 µM
CCOc1ccc(Nc2c(C)c(N[C@H]3CC[C@H](N)CC3)nc3ccnn23)cc1 [Compound 32] | +++ | – | < 100 µM | – | < 100 µM
CCc1c(N[C@H]2CC[C@H](N)CC2)nc2ccnn2c1Nc1ccc(Oc2ccccc2)cc1 [Compound 33] | +++ | – | < 100 µM | 147 to 149 °C | –
CCc1c(N[C@H]2CC[C@H](N)CC2)nc2ccnn2c1Nc1ccc(OCc2ccccc2)cc1 [Compound 35] | +++ | – | < 100 µM | 120 to 122 °C | < 100 µM

SMILES | activity (efficacy against MAPKAP-K2) [1] | IC50 [2] | IC50 [3] | melting point | IC50 [2, 4]
CCc1c(N[C@H]2CC[C@H](N)CC2)nc2ccnn2c1Nc1ccc(SC)cc1 [Compound 36] | +++ | – | < 100 µM | 190 to 192 °C | –
CCc1c(N[C@H]2CC[C@H](N)CC2)nc2ccnn2c1Nc1cccc(I)c1 [Compound 60] | +++ | – | – | 199 to 201 °C | < 100 µM
CCOc1cccc(Nc2c(CC)c(N[C@H]3CC[C@H](N)CC3)nc3ccnn23)c1 [Compound 61] | +++ | – | – | 150 to 152 °C | < 100 µM
CSc1ccc(Nc2c(C)c(N[C@H]3CC[C@H](N)CC3)nc3ccnn23)cc1 [Compound 65] | +++ | – | – | 185 to 187 °C | < 100 µM
Cc1c(N[C@H]2CC[C@H](N)CC2)nc2ccnn2c1Nc1cccc(Br)c1 [Compound 77] | +++ | – | – | 215 to 216 °C | < 100 µM
Cc1c(N[C@H]2CC[C@H](N)CC2)nc2ccnn2c1Nc1cccc(Cl)c1 [Compound 85] | +++ | – | – | 209 to 212 °C | < 100 µM
Cc1c(N[C@H]2CC[C@H](N)CC2)nc2ccnn2c1Nc1cccc(O)c1 [Compound 88] | +++ | – | – | 145 to 150 °C | < 100 µM
Cc1c(N[C@H]2CC[C@H](N)CC2)nc2ccnn2c1Nc1cccc(CO)c1 [Compound 97] | +++ | – | – | 97 to 100 °C | < 100 µM
Cc1c(N[C@H]2CC[C@H](N)CC2)nc2ccnn2c1Nc1ccccc1 [Compound 102] | +++ | – | – | 96 to 99 °C | < 100 µM
Cc1c(N[C@H]2CC[C@H](N)CC2)nc2ccnn2c1Nc1ccc2ncsc2c1 [Compound 112] | +++ | – | – | 100 to 108 °C | < 100 µM
CCc1c(N[C@H]2CC[C@H](N)CC2)nc2ccnn2c1Nc1ccc(OC)c(C(F)(F)F)c1 [Compound 113] | ++ | – | – | 181 to 183 °C | < 100 µM
CC(C)c1c(N[C@H]2CC[C@H](N)CC2)nc2ccnn2c1Nc1ccc(F)c(Cl)c1 [Compound 115] | +++ | – | – | 165 to 168 °C | < 100 µM
Cc1c(N[C@H]2CC[C@H](N)CC2)nc2ccnn2c1Nc1ccc(-n2ccnc2)cc1 [Compound 118] | +++ | – | – | 210 to 215 °C | < 100 µM
Cc1c(N[C@H]2CC[C@H](N)CC2)nc2ccnn2c1Nc1ccc2c(c1)OCCO2 [Compound 126] | +++ | – | – | 68 to 72 °C | < 100 µM
Cc1c(N[C@H]2CC[C@H](N)CC2)nc2ccnn2c1Nc1ccc(N2CCCCC2)cc1 [Compound 129] | +++ | – | – | 58 to 66 °C | < 100 µM
CCc1c(N[C@H]2CC[C@H](N)CC2)nc2ccnn2c1Nc1cccc(C(N)=O)c1 [Compound 151] | ++ | – | – | 206 to 210 °C | < 100 µM
Cc1nc2ccc(Nc3c(C)c(N[C@H]4CC[C@H](N)CC4)nc4ccnn34)cc2s1 [Compound 155] | +++ | – | – | 210 to 215 °C | < 100 µM
CCc1c(N[C@H]2CC[C@H](N)CC2)nc2ccnn2c1Nc1ccc(Br)cc1 [Compound 159] | +++ | – | – | 184 to 187 °C | < 100 µM
CCc1c(N[C@H]2CC[C@H](N)CC2)nc2ccnn2c1Nc1ccc(I)cc1 [Compound 168] | ++ | – | – | 104 to 106 °C | < 100 µM
